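Step 1: Grow cells in 96-well plates. Step 2: Expose to compound for 48 hours at 5 concentrations. Step 3: Interpolate endpoints linearly; if unreached, use highest concentration. The concentration for full growth arrest is given as TGI.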
What was measured:
Test in all cases: inhibition of tumour cell growth, NCI panel, 48 h
HCC-2998 colon = system: HCC-2998 colon
SK-OV-3 ovarian = system: SK-OV-3 ovarian
786-0 renal = system: 786-0 renal
A498 renal = system: A498 renal
ACHN renal = system: ACHN renal
NCI-H226 lung = system: NCI-H226 lung
UACC-257 melanoma = system: UACC-257 melanoma
IGROV1 ovarian = system: IGROV1 ovarian
HT29 colon = system: HT29 colon
MOLT-4 leukemia = system: MOLT-4 leukemia
CCRF-CEM leukemia = system: CCRF-CEM leukemia

SMILES	TGI (HCC-2998 colon) [µM]	TGI (SK-OV-3 ovarian) [µM]	TGI (786-0 renal) [µM]	TGI (A498 renal) [µM]	TGI (ACHN renal) [µM]	TGI (NCI-H226 lung) [µM]	TGI (UACC-257 melanoma) [µM]	TGI (IGROV1 ovarian) [µM]	TGI (HT29 colon) [µM]	TGI (MOLT-4 leukemia) [µM]	TGI (CCRF-CEM leukemia) [µM]
CCOC(=O)c1cn2c(n1)sc1cc([N+](=O)[O-])ccc12	> 100	> 100	> 100	> 100	> 100	> 100	> 100	> 100	> 100	> 100	> 100
COC1=C(OC)C(=O)c2cc(C)c(=O)c(C)cc2C1=O	55.1	41.8	24.5	40.7	31.1	39.3	25.6	33.2	50.5	15.6	7.06
CC(=O)OCCn1c(Cc2ccc(Cl)cc2)nn(C(C)=O)c1=O	> 100	> 100	> 100	> 100	> 100	> 100	> 100	> 100	> 100	> 100	> 100
COc1cc(N(CCC#N)CCC#N)ccc1/C(N=Nc1cccc([N+](=O)[O-])c1)=N\NC(=O)c1ccc(C)cc1	> 100	> 100	> 100	> 100	> 100	> 100	60.9	> 100	> 100	> 100	99.2
COc1ccccc1Nc1nc(N)nc(N)c1N	> 100	> 100	> 100	> 100	> 100	> 100	> 100	> 100	> 100	31.6	50.8
Cn1c2ccccc2n2c3ccccc3c3nnc(N)c-3c12	> 100	> 100	49.8	> 100	> 100	> 100	> 100	> 100	> 100	> 100	> 100
C[C@H]1CC(=O)C[C@@H]2CC[C@@H]3[C@H](CC[C@]4(C)C(OC(=O)c5cccc6c(=O)c7ccccc7[nH]c56)CC[C@@H]34)[C@]21C (stereo partly drawn)	> 100	> 100	> 100	> 100	> 100	> 100	> 100	> 100	> 100	30.2	73.2
CCc1c(N=[N+]=[N-])c2ccccc2oc1=O	> 100	> 100	> 100	> 100	> 100	> 100	> 100	> 100	> 100	> 100	> 100

— PubChem BioAssay (NCI)
